Some results are limits rather than exact numbers.

For one experiment, the target named is FIXa (Homo sapiens, UniProt P00740). The experiment in a line: FXa generation assay with human FIXa. In kind it is biochemical. Details: purchased Haematologic Technologies. Particulars: FXa generation assay using human FIXa; class symbols.
FIXa, sequence (P00740 47-191 limits assumed): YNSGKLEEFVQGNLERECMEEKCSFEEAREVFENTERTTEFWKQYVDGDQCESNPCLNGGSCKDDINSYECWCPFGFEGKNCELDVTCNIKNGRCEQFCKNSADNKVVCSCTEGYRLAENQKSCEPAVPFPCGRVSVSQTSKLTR
FIXa, sequence (P00740 227-461 limits assumed): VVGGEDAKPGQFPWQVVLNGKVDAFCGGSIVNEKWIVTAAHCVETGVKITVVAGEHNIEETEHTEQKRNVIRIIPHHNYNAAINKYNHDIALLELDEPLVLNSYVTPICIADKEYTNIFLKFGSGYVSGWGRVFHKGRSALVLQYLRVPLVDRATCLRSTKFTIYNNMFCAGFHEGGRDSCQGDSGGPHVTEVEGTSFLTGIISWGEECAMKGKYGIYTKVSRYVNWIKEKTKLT
Text: FXa generation was utilized to assess the capability of the compounds of the present disclosure to enhance the catalytic activities of FIXa and/or FVIIa.
To measure the catalytic activity of FIXa, FIXa was mixed with FX and phospholipids in the presence of calcium chloride. Under these conditions FIXa cleaves the zymogen FX into the active form FXa.
The generation of FXa is monitored by the change in absorbance of the reaction at 405 nm due to the presence of a cleavable FXa chromogenic substrate (S-2765; Z-D-Arg-Gly-Arg-pNA; cleavage of p-nitroaniline). […] The kit contains all the FXa generation components, however, FIXa and FX obtained from this kit are from a bovine origin and were replaced with purified human FIXa or human FVIIa and human FX (Haematologic Technologies).
The assay was also modified to enhance the screening throughput. Instead of the sequential addition, all the assay components were mixed and added simultaneously to the purified compound to be assayed. A 125 μl reaction mix of the assay components was prepared in the buffer supplied by the manufacturer (50 mM Tris 7.3, and 1% BSA). […] The reaction mix (125 ul) was then added to 25 ul of compound diluted in water in a Costar-3651 flat bottom 96-well plate. […] The absorbance was monitored over a period of 1 hour at 405 nm using a plate reader (Synergy 2, Biotek).
The 405 nm absorbance data were then analyzed to obtain the slope of the first derivative which reflects the rate of change in absorbance. The first derivative slope data for each compound concentration were plotted against the compound concentration and fitted to a four-parameter equation to obtain the EC50 and Vmax values for each compound tested.
Regarding APPGGKRMCLVSGCQLFPWSAS, the Vmax entry is recorded as “(+) ((+)<1)”.
Same read-out and setting: the entry for AQLRRKLTCLASYCWLFGFFSP is “(++) ((++) 1-2)”; for AQTRVARCCQLF it is “(+) ((+)<1)”.
Consider AVAINKVPCVASYCQLFESKIH, for which the Vmax entry is given as “(+) ((+)<1)”.
With AWPYHKPTCLASQCWQFLAQGS, the Vmax entry is on record as “(+) ((+)<1)”.
Regarding DAGPNKLRCLASYCQLFGGGHA, the Vmax result is listed as “(+) ((+)<1)”.
For DAKVAKLRCLGSQCWLLQYAPG, the Vmax result was “(++) ((++) 1-2)”.
Same read-out and setting: the value for DSRSAKRKCLASYCWLFGIGQA was “(+) ((+)<1)”; that for EQTCLASYCWLF was “(+) ((+)<1)”; that for ERYRLDMTCMASQCWQFPPAAG was “(++) ((++) 1-2)”.
Regarding FGQPSRLTCLASYCWLFGNLVT, the Vmax result is reported as “(++) ((++) 1-2)”.
Take FPIQHKLTCLSSDCWLFPSHSY: the Vmax result is on record as “(+) ((+)<1)”.
On the same count and under the same terms, the entry for GAQLDKETCLASYCQLFSTVRR is “(+) ((+)<1)”; for GASSDKLTCRTRHCSMFQPLSV it is “(+) ((+)<1)”; for GCSSDKLTARTRHCSMFQPLSV it is “(+) ((+)<1)”.
Take GDSGRKLSCLGSYCWLSVQFMA: the Vmax entry was “(++) ((++) 1-2)”.
On the same count and under the same terms, the value for GEGGGKLSCVAIQCGLFKGLGR was “(+) ((+)<1)”.
Same read-out and setting: the value for GFGSRKLTSLASYGWLIQDRLP was “(+) ((+)<1)”; that for GGALQQLTCPASYCWLFPMEHS was “(+) ((+)<1)”.
Regarding GIQGSEVACRASFCRLFEQGHV, the Vmax result is “(+) ((+)<1)”.
On to GSCRDQLTCLSSDRWQFFRRVS, for which the Vmax entry is on record as “(+) ((+)<1)”.
Still for that read-out and setting: the entry for GVEDRQLTCLASSCWVFSRHSV is “(++) ((++) 1-2)”.
For the substance HDSLDQLTCLASVCQLASMGAR, the Vmax result is given as “(+) ((+)<1)”.
Still for that read-out and setting: the value for HGLADRLTCLSSDCWLQPFGTS was “(+) ((+)<1)”; that for HLGSPKLTCGASQCWLLNHEVS was “(+) ((+)<1)”; that for HMQWGKLPCLASYCWLFWYGIG was “(+++) ((+++)>2)”.
The same measure, in the same setting: the value for HQQRRKLTCLAGYCWLFVLGPS was “(+++) ((+++)>2)”; that for KEGFAQLPCLVCQGGLFSPRAI was “(+) ((+)<1)”.
For the substance KGAYQKLTCLASYCLLFLLTAQ, the Vmax entry is “(++) ((++) 1-2)”.
Consider KGRCLTSHCWLF, for which the Vmax result is recorded as “(+) ((+)<1)”.
Take KKTCLASYCWLF: the Vmax result is on record as “(++) ((++) 1-2)”.
What is called EC50 is the concentration at which the effect is half-maximal. KLKCLASYCWLF: the half-maximal effective concentration (EC50) lay within 500 to 1000 nM and the Vmax entry is on record as “(++++) ((++++)>3)”.
Turning to KLKCLSSECQLL, the Vmax result was “(+) ((+)<1)”.
In the case of KLSCQAGQCWVF, the Vmax entry is “(+++) ((+++)>2)”.
For KLTCKASYCWLF, the Vmax result is “(++++) ((++++)>3)”.
Same read-out and setting: the value for KLTCLASKCWLF was “(+) ((+)<1)”; that for KLTCLASQCWLF was “(+++) ((+++)>2)”.
For KLTCLASYCFLF, the EC50 lay within 500 to 1000 nM and the Vmax entry is reported as “(++++) ((++++)>3)”.
KLTCLASYCLLF: the EC50 lay in the range of 500 to 1000 nM and the Vmax entry is recorded as “(+++) ((+++)>2)”.
KLTCLASYCQLF: the EC50 was in the range of 500 to 1000 nM and the Vmax entry is “(++++) ((++++)>3)”.
Turning to KLTCLASYCQLV, the Vmax result is reported as “(+++) ((+++)>2)”.
As to KLTCLASYCWIF, the EC50 was in the range of 500 to 1000 nM and the Vmax entry was “(+++) ((+++)>2)”.
On to KLTCLASYCWLK, for which the Vmax result is recorded as “(+) ((+)<1)”.
Regarding KLTCLASYCWYF, the Vmax result was “(+++) ((+++)>2)”.
Take KLTCLATYCWLF: the Vmax entry is reported as “(++) ((++) 1-2)”.
As to KLTCLGSYCWLF, the Vmax entry is “(+++) ((+++)>2)”.
With KLTCLKSYCWLF, the Vmax entry is reported as “(++) ((++) 1-2)”.
Consider KLTCLSSYCWLF, for which the Vmax result is reported as “(+++) ((+++)>2)”.
On to KLTCLVSYCWLF, for which the concentration giving a half-maximal response (EC50) was in the range of 500 to 1000 nM and the Vmax result is given as “(+++) ((+++)>2)”.
For KLTCQASYCWLF, the Vmax result is “(++) ((++) 1-2)”.
As to KLTCRASYCQLF, the Vmax entry is listed as “(+++) ((+++)>2)”.
KRYVYRQMCLVSACWLLQLGYA: the Vmax result was “(++) ((++) 1-2)”.
Regarding LLHAQKLSCLASYCWVFDAEWD, the Vmax result is “(+) ((+)<1)”.
As to LLQIPNLTCLGSYCWLDNGVYA, the Vmax entry is “(+) ((+)<1)”.
Regarding LQELTKLTCLARSGWLVCNPGY, the Vmax result is given as “(+) ((+)<1)”.
For LRTQPKVTGLASCSGLVNCSRD, the Vmax entry is listed as “(+) ((+)<1)”.
Consider LTWREKLACLASYCWLFLWGAP, for which the Vmax result is “(++) ((++) 1-2)”.
On the same count and under the same terms, the value for MAGMLKLTCFASYCGLFPLVSS was “(++) ((++) 1-2)”.
Turning to MEGTRQPTCLASYCSPFQYVAP, the Vmax entry was “(+) ((+)<1)”.
For MLTCIASYCQLG, the Vmax result is reported as “(+) ((+)<1)”.
The same measure, in the same setting: the value for NGGMQKPACLASQCWLFANPLP was “(++) ((++) 1-2)”; that for NLTGRASYGWLP was “(+) ((+)<1)”; that for NPTCQASYCQLF was “(+) ((+)<1)”.
On to QAKMLKLTCLASYCWLFWVTRS, for which the Vmax entry is listed as “(+++) ((+++)>2)”.
As for QDGDGKLTCRASYCRRFLVGVH, the Vmax entry is recorded as “(+) ((+)<1)”.
On the same count and under the same terms, the value for QDGVEKLTCLASYCWRFGDHGA was “(+) ((+)<1)”; that for QEQPAKLTCRGSYCWLFKRGDQ was “(+) ((+)<1)”; that for QGQARKLACLASYCWLFPSSAG was “(+) ((+)<1)”.
Still for that read-out and setting: the value for QLPCLASYCGLF was “(+) ((+)<1)”; that for QLTCLASECGLS was “(+) ((+)<1)”; that for QLTCLASYCGGV was “(+) ((+)<1)”.
Still for that read-out and setting: the value for QLTCLASYCWLF was “(+) ((+)<1)”.
In the case of QQRQIKMSCLASYCWLFGSIPW, the half-maximal effective concentration (EC50) is 500 to 1000 nM and the Vmax result is recorded as “(++) ((++) 1-2)”.
Regarding QQTCQASQCQLF, the Vmax entry was “(+) ((+)<1)”.
On the same count and under the same terms, the value for RFQTTQLTCLGSASCLFNLSVR was “(+) ((+)<1)”.
Turning to RGRSAKLRCLASYCWLFFGVIL, the Vmax result is recorded as “(+++) ((+++)>2)”.
Still for that read-out and setting: the value for RGRSAKLRCLASYCWLFFTVIL was “(+++) ((+++)>2)”.
Still for that read-out and setting: the entry for RGRSAKLTCLASYCWLFFGVIL is “(+++) ((+++)>2)”.
The same measure, in the same setting: the value for RGSVHQPTCLGGYCGRLHSSWV was “(+) ((+)<1)”.
For RHSNHNLTCQASYCWLLPAGLQ, the Vmax entry is recorded as “(+) ((+)<1)”.
Turning to RLTCLASYCWLF, the Vmax entry is “(+++) ((+++)>2)”.
As for RPGGGKVTCQASYCWPFLARAG, the Vmax entry was “(+) ((+)<1)”.
In the case of RQLWNKLTCLASYCALIGLSGT, the Vmax result is “(++) ((++) 1-2)”.
Still for that read-out and setting: the value for RRCPGKLQALASYCWLFWTGIA was “(+++) ((+++)>2)”; that for RSFTSELTCLASSCRRFHHVPP was “(+) ((+)<1)”.
Consider RSQGRKLTCLASYCWLFLVVHR, for which the Vmax result was “(++) ((++) 1-2)”.
Same read-out and setting: the value for RSTVSQMRCLASYCWLFPALVS was “(++) ((++) 1-2)”.
For the substance SCVKHELKCLSSDSRLFSAVQR, the Vmax result was “(+) ((+)<1)”.
On the same count and under the same terms, the entry for SGFGMKLTCLASYCGLFQGEIG is “(+) ((+)<1)”; for SGGSGKLTCLASYCWPFGSQVR it is “(+) ((+)<1)”.
For the substance SGRGGKLTCQASFCQLFGNGLS, the Vmax entry is given as “(++) ((++) 1-2)”.
Still for that read-out and setting: the entry for SISGQQLTCRASHCWLNLPWHS is “(+) ((+)<1)”; for SKWEHQRGCLANNCWLFTLAPG it is “(+) ((+)<1)”; for SLADTQLTWLARQYWLSVSEGS it is “(+) ((+)<1)”.
For SRQSDKPTCLAISCSLLTSNVR, the Vmax entry is listed as “(+) ((+)<1)”.
Same read-out and setting: the entry for SYGRTKLTCLASSCWLFGQVHG is “(+) ((+)<1)”; for TLDSKNLQCLGSSCWLFSSGLS it is “(+) ((+)<1)”; for TLLYQNRTCLASYCWLFDKRSV it is “(+) ((+)<1)”.
Same read-out and setting: the entry for TLTCRASYCQLF is “(+) ((+)<1)”.
Turning to VAHYGKVTCLASYCQPLPSVGA, the Vmax result is “(+) ((+)<1)”.
Take VARASKVECLASYCQLFVGGEV: the Vmax result is listed as “(+) ((+)<1)”.
Take VDKGHQLRCQAGYCWLLGYNRE: the Vmax entry is on record as “(+) ((+)<1)”.
As for VGEHRKISCVASNCQLLRSGLA, the Vmax entry is “(+) ((+)<1)”.
For VQRSTQLTCLYGGCRLFGWNYH, the Vmax entry was “(+) ((+)<1)”.
In the case of VSGTGKLTCLASYCWLFQLGSF, the Vmax entry is listed as “(++) ((++) 1-2)”.
In the case of VSGTGRLTCVASYCWMFQLGIF, the Vmax entry is recorded as “(++) ((++) 1-2)”.
Same read-out and setting: the entry for VSGTGRLTCVASYCWMFQLGSF is “(++) ((++) 1-2)”.
Consider WHERQQLTCLASYCGLFVGQVA, for which the Vmax result is “(+) ((+)<1)”.
The same measure, in the same setting: the entry for YARDSTLTCQARTCQLVDYLGP is “(+) ((+)<1)”.

Still in this experiment, the particulars now being: FXa generation assay using human FIXa; numeric bounds.
As for EGRRDKLTCLASYCWLVGHGQH, the Vmax was >0.3.
With GASGRRRTCVASYCLLFQSGLP, the Vmax is on record as >0.1.
On the same count and under the same terms, the value for HYARVQLRCLDGYCWLLTKSRM was >2.5; that for KKTCVASFCQMI was >4; that for LRQRLAKTCVASYCWLFSLVAS was >1.5.
On the same count and under the same terms, the value for RCAQSRLPWLVSYCWLFSPYGM was >1.5; that for RYQRARLTCLASYCGLLFSMSA was >0.5; that for WVPQWKVTCLASCSRLFHGFDA was >1.5.

The same experiment, now with this note: FXa generation assay, 10 nM hFIXa, 100 nM hFX; class symbols.
With “PRIrTVGPGSrSASGKSTCLASYCWLFWTGIA [Compound 24]”, the Vmax result was “(++++) ((++++)>3)”.

In the next experiment the test system is FVIII deficient human plasma. The experiment can be described thus: Thrombin generation assay (TGA) in FVIII-deficient plasma. In kind it is biochemical. Particulars: 0.1 U/mL FVIII; compound 7 100-6.3 uM, compounds 8 and 9 50-3.1 uM.
Take “GWKPFLWDPRVLLSSGWYGRG [Compound 7, reference compound]”: the “TGA activity in the presence of FVIII” value was “competes with FVIII”.
Same read-out and setting: the entry for “GWKPFLWDPRVLLSSGWYGRGGGGGWKPFLWDPRVLLSSGWYGRG [Compound 9, reference compound]” is “competes with FVIII”.

These data come from US9486507B2, “Pro-coagulant compounds and methods of use thereof” (priority 2011, dated 2016).
